The values below come from patent US20070059687A1, “Process for evaluating phagocytotic function and use thereof” (priority 2001, published 2007).

One data set concerns Staphylococcus aureus. Kind of data set: Lysis evaluated by decrease in turbidity at 600 nm. It counts as cell-based. As to conditions: FIG. 3(a). An excerpt: Conditions for the enzyme to lyse Staphylococcus aureus (ATCC 12600), Staphylococcus epidermidis (ATCC 14990), Pseudomonas aeruginosa (ATCC 10145), Enterococcus faecalis (ATCC 19433) and Escherichia coli (ATCC 11775) were studied. For Staphylococcus aureus and Staphylococcus epidermidis, lysostafin was used as the lytic enzyme (Bur. J. Biochem., 38, 293-300, 1973). […] Further, for Pseudomonas aeruginosa and Escherichia coli, PBS containing 70 mmol/l sodium hydroxide was used. Each type of these bacteria was inoculated in 5 ml of BHI (Brain Heart Infusion) liquid medium (manufactured by DIFCO), and cultured at 37° C. for 8 hours or longer. Thus cultured bacterial liquid was collected by centrifugation at 4° C. for 10 minutes at 2,000×g. The collected bacteria were suspended in PBS to give a sample. Lysis was evaluated by decrease in turbidity of the bacterial liquid at the absorbance of 600 nm using a microplate reader. Consequently, Staphylococcus aureus and Staphylococcus epidermidis were lysed by lysostafin. In respect of Pseudomonas aeruginosa and Escherichia coli, no enzymatic treatment was required because lysis was conducted with PBS containing 70 mmol/l sodium hydroxide. […]

Data set [1] concerns Staphylococcus epidermidis. Nature of the data set: Lysis evaluated by decrease in turbidity at 600 nm. As to conditions: for Decrease in turbidity of bacteria: lysostafin 50 unit/ml. The data set is classed as cell-based. From the text: Conditions for the enzyme to lyse Staphylococcus aureus (ATCC 12600), Staphylococcus epidermidis (ATCC 14990), Pseudomonas aeruginosa (ATCC 10145), Enterococcus faecalis (ATCC 19433) and Escherichia coli (ATCC 11775) were studied. For Staphylococcus aureus and Staphylococcus epidermidis, lysostafin was used as the lytic enzyme (Bur. J. Biochem., 38, 293-300, 1973). […] Further, for Pseudomonas aeruginosa and Escherichia coli, PBS containing 70 mmol/l sodium hydroxide was used. Each type of these bacteria was inoculated in 5 ml of BHI (Brain Heart Infusion) liquid medium (manufactured by DIFCO), and cultured at 37° C. for 8 hours or longer. Thus cultured bacterial liquid was collected by centrifugation at 4° C. for 10 minutes at 2,000×g. The collected bacteria were suspended in PBS to give a sample.
Lysis was evaluated by decrease in turbidity of the bacterial liquid at the absorbance of 600 nm using a microplate reader. Consequently, Staphylococcus aureus and Staphylococcus epidermidis were lysed by lysostafin. In respect of Pseudomonas aeruginosa and Escherichia coli, no enzymatic treatment was required because lysis was conducted with PBS containing 70 mmol/l sodium hydroxide. […] Moreover, when the bacterium incorporated upon phagocytotic action is for example, Pseudomonas aeruginosa, Escherichia coli or the like, bacterial cell wall is lysed during the alkaline treatment to result in the state in which the gene is exposed. Therefore, it is not necessary to conduct this enzymatic treatment. Each enzyme for the pretreatment which is used in lysis of the foreign microorganism according to the present invention is effective not only for the aforementioned bacterial strain, but also for other bacterial strain that includes other genus staphylococcus, genus streptococcus, genus bacillus, genus micrococcus and the like. […] The results are illustrated in FIG. 3, specifically, in regard to: (a) Staphylococcus aureus and Staphylococcus epidermidis, (b) Pseudomonas aeruginosa and Escherichia coli, and (c) Enterococcus faecalis.
Enterococcus faecalis was inoculated in 50 ml of the aforementioned BHI liquid medium, and cultured at 37° C. for 8 hours or longer. This culture liquid was centrifuged at 4° C. for 10 minutes at 2,000×g to collect the bacteria, followed by subjecting to a heat treatment in an autoclave (120° C., for 10 minutes) after suspending in PBS. Next, the suspension was centrifuged at 4° C. for 10 minutes at 2,000×g, and the supernatant was discarded. Precipitates were suspended in 1 ml of PBS, and thereafter, subjected to freeze-drying. This freeze-dried sample was suspended in 5 mmol/l Tris-hydrochloric acid (pH 6.0), 2 mmol/l magnesium chloride containing 0 to 10% DMSO to give the samples for N-acetylmuramidase. Further, Micrococcus luteus (JCM1464) was inoculated in 5 ml of BHI liquid medium (supra), and cultured at 37° C. for 8 hours or longer. The cultured bacterial liquid was centrifuged at 4° C. for 10 minutes at 2,000×g to collect the bacteria. After discarding the supernatant, and suspending and washing the bacterial pellet with 5 ml of PBS, centrifugation was conducted once again at 4° C. for 10 minutes at 2,000×g to collect the bacteria. […] Enzymatic activity was evaluated on the basis of the decrease in turbidity of the sample at the absorbance of 600 nm using a microplate reader. […] Additionally, no decrease in enzymatic activity was found with DMSO at the concentration of 2% or less. […] The results are show in FIG. 4(a) to (c) and Table 3 below.

The subject of another data set is SE digested sample. Kind of data set: Enzymatic treatment of digested sample, bacterial bodies in leukocytes by acridine orange staining. It counts as cell-based, Staphylococcus epidermidis. The arrangement: key to enzymatic treatment determination: The determination was made as adequate when no bacterial body was identified in the leukocytes by the enzymatic treatment. As to conditions: for enzymatic treatment determination: SE digested sample, once, twice, thrice. As for the experimental part: (§1) Using the slide glass having each digested sample smeared thereon, the enzymatic pretreatment was performed according to the process described in Example 3. Next, the slide glass after completing the enzymatic pretreatment was placed in a humid box, and the reaction was allowed by dropping 1 ml of each enzyme solution prepared to give each titer on the smeared site of the specimen. Thereafter, the slide glass was immersed in PBS containing 0.2 mol/l hydrochloric acid, and in 70% ethanol respectively, for 10 minutes, and air dried. After immersing this slide glass in PBS containing 70 mmol/l sodium hydroxide for 3 minutes, and in 70% ethanol for 10 minutes, it was air dried and stained with 1% acridine orange staining solution. Then, evaluation was made with a fluorescence microscope (×1,000). For Staphylococcus aureus and Staphylococcus epidermidis, examination of the optimal titer was conducted with lysostafin. […] The determination was made as adequate when no bacterial body was identified in the leukocytes by the enzymatic treatment.
(§2) Using a slide glass including each digested sample smeared thereon, examination was conducted according to the process described in example 17 (2). Time period of the enzymatic treatment in this test was 30 minutes, and the temperature for examination was 4° C., 25° C., 37° C., 42° C., and 60° C.
(§3) Using the slide glass including each digested sample smeared thereon, examination was conducted according to the process described in example 17 (2). […] Determination was conducted according to the process described in example 17 (2). As a consequence, for all of Staphylococcus aureus, Staphylococcus epidermidis and Enterococcus faecalis digested samples, no bacterial body was found in the leukocytes with the time period of the enzymatic treatment of 20 minutes or longer (inadequate at 0 minute and 10 minutes). Therefore, the optimal time period of the enzymatic treatment is at least 15 minutes or longer, preferably 20 minutes or longer, and still preferably 30 minutes to 60 minutes.

The next data set deals with SA digested sample. The description is as above. As to conditions: for enzymatic treatment determination: SA digested sample, once, twice, thrice. The arrangement: key to enzymatic treatment determination: The determination was made as adequate when no bacterial body was identified in the leukocytes by the enzymatic treatment. The data set is classed as cell-based, Staphylococcus aureus. The procedure:
as §1, §2, §3

“Lysostafin: lytic enzyme used for Staphylococcus aureus and Staphylococcus epidermidis”: the lysis entry (in the data set on Staphylococcus aureus; in data set [1] (FIG. 3(a))) was “lysed” throughout. In addition, the “Decrease in turbidity of bacteria” value in data set [1] (added DMSO 0 % (control)) was 0.168 ± 0.017 O.D./10 minutes; in data set [1] (added DMSO 0.1 %), 0.164 ± 0.009 O.D./10 minutes; in data set [1] (added DMSO 1 %), 0.160 ± 0.008 O.D./10 minutes; in data set [1] (added DMSO 2 %) it was 0.145 ± 0.009 O.D./10 minutes; in data set [1] (added DMSO 5 %), 0.124 ± 0.006 O.D./10 minutes; in data set [1] (added DMSO 10 %), 0.094 ± 0.006 O.D./10 minutes. The enzymatic treatment determination entry in the data set with SE digested sample (lysostafin titer 0.1 U/mL) is reported as “inadequate”; in the data set with SE digested sample (lysostafin titer 1 U/mL), “inadequate”; in the data set on SE digested sample (lysostafin titer 10 U/mL), “adequate”; with SE digested sample (lysostafin titer 100 U/mL), “adequate”; in the data set on SE digested sample (lysostafin titer 1,000 U/mL), “adequate”; with SA digested sample (lysostafin titer 0.1 U/mL), “Inadequate”. Further, the enzymatic treatment determination result in the data set on SA digested sample (lysostafin titer 1 U/mL), in the data set on SA digested sample (lysostafin titer 10 U/mL), in the data set on SA digested sample (lysostafin titer 100 U/mL) and with SA digested sample (lysostafin titer 1,000 U/mL) was “adequate” throughout. Moreover, the “titer necessary for lysis” value in the data set with SE digested sample (lysis of Staphylococcus epidermidis) is recorded as no less than 10 unit/ml. Also, the “titer at which sufficient effects were exerted” value in the data set on SA digested sample (lysis of Staphylococcus aureus) is 1 unit/ml.
